From ChEMBL document CHEMBL3351791, “Some molecular targets for antihyperlipidemic drug research” (Eur J Med Chem, 2014)

Columns and labels:
[1] = target: T1, Cholesteryl ester transfer protein (Homo sapiens, UniProt P11597); assay: Inhibition of CETP-mediated [3H]-CE from HDL to LDL in human plasma
T1 sequence (P11597 whole entry): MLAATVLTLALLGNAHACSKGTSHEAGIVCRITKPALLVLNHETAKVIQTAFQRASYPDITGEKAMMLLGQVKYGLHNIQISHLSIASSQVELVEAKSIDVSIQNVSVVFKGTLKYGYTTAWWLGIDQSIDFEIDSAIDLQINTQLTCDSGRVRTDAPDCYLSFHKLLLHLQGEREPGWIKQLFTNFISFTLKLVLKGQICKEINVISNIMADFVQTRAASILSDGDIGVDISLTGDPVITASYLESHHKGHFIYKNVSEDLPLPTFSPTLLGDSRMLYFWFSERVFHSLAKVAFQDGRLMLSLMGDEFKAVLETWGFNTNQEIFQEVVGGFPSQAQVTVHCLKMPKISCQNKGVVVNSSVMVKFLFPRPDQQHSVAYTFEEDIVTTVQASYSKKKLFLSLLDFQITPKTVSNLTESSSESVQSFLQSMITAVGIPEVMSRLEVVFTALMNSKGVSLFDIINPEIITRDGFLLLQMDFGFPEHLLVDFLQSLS

[2] = system: Mus musculus; assay: Ex vivo inhibition of human CETP overexpressed in po dosed double transgenic mouse harboring human apoA1 assessed as elevation of HDL-cholesterol level measured at 8 hrs post dose; type: functional

IC50 [1] [nM]	Compound	ED50 [2] [mg/kg]
600	NCC(O)C(F)(F)F (configuration not stated)	
	Cc1cc(C)c2c(c1)[C@@H](N(Cc1cc(C(F)(F)F)cc(C(F)(F)F)c1)c1nnn(C)n1)CCCN2C[C@H]1CC[C@H](C(=O)O)CC1 [EVACETRAPIB]	< 5
